Data as given in patent US20010049389A1, “Arthropod-controlling composition” (priority 2000, published 2001).

Legend:
Type in all cases: in vivo
[1] = system: adult German cockroaches (Blattella germanica); test: Test Example 3: direct spray of oil solution, knock-down of German cockroaches; conditions: 1.5 ml of 0.5% oil solution sprayed directly, one minute after spraying
Procedure: A square of paper (side: 20 cm) was covered on the iron net set on the bottom of the metallic chamber (46 cm×46 cm, 70 cm in height). A container (8.75 cm in diameter, 7.5 cm in height, having 16-mesh net at the bottom and spreading butter on the wall for preventing escape) was set on the paper. In the container, ten (5 males and 5 females) adult German cockroaches (Blattella germanica) were released. By means of spray gun, 1.5 ml of the oil solution obtained in Preparation example 9 was applied to the test insects at a pressure of 0.42 kg/cm^2 from the upper part of the chamber. The container was taken out of the chamber 30 seconds after spraying and the test insects were transferred to a clean plastic cup. One minute after spraying, the knocked-down cockroaches were counted. As a result, the knock-down percentage was 100%. Reference compound was also tested and the knock-down percentage was 42%.

[2] = system: adult cat fleas (Ctenocephalides felis); test: Test Example 7: treated filter paper contact, adult cat fleas; conditions: three repetitions
Procedure: A designated amount of the Pyrone Compound was dissolved in acetone to give a 0.2 ml solution, which was uniformly treated on a filter paper having 3.8 cm in diameter, and air-dried for one hour. The filter paper was filled in a lid of a 200 ml glass bottle. Twenty adult cat fleas (Ctenocephalides felis) were released in the glass bottle, which was followed by covering with the lid. The glass bottle was upset for making the fleas contact with the filter paper, and kept at room temperature (25±3° C.) for one day. After that, the mortality was observed.

[3] = system: cotton aphids (Aphis gossypii); test: Test Example 15: foliar spray on cucumber, cotton aphids; conditions: 500 ppm dilution of flowable (Preparation example 7), 30 ml sprayed, after 6 days
Procedure: About 30 cotton aphids (Aphis gossypii) were put on a cucumber leaf (in first-leaf stage) grown in a 90 ml plastic cup.
Next day, the formulation obtained in Preparation example 7 was diluted with water containing a spreading agent (Tokurino produced by Nihon Nohyaku Co.) to make the concentration of the Pyrone Compound to 500 ppm. Thirty milliliters (30 ml) of the dilution were sprayed to the cucumber and air-dried. The plastic pot was put in a container and allowed to stand at 22±2° C. in a greenhouse. After 6 days, the mortality was 90% or more.

[4] = system: cat flea (Ctenocephalides felis) eggs; test: Test Example 8: treated filter paper, hatching of cat flea eggs
Procedure: A designated amount of the Pyrone Compound was dissolved in acetone to give a 0.2 ml solution, which was uniformly treated on a filter paper having 3.8 cm in diameter, and air-dried for one hour. The filter paper was set on an aluminum plate of 4 cm in diameter. Twenty cat flea (Ctenocephalides felis) eggs were put on the filter paper and the plate was kept at 25±3° C. and 70-90% of humidity in a plastic Petri dish. After 7 days, the hatching was observed. The tests were repeated three times and the results are given in […]

[5] = system: eggs of peach fruit moth (Carposina niponensis); test: Test Example 20: treated artificial food, peach fruit moth eggs; conditions: 1 ml of 500 ppm dilution (Preparation example 2) in 6 g artificial food, after 10 days
Procedure: The formulation obtained in Preparation example 2 was diluted with water to make the concentration of the Pyrone Compound to 500 ppm. One milliliter (1 ml) of the dilution was added to 6 g of artificial food (Insecta LF produced by Nihon Nosankogyo Co.) in plastic cup having 5.5 cm in diameter. About 50 eggs of peach fruit moth (Carposina niponensis) laid on nylon cloth were put into the plastic cup. After 10 days, the ovicidal effect was 90% or more.

[6] = system: adult German cockroaches (Blattella germanica); test: Test Example 5: heating fumigant (ceramic plate) in 5.8 m^3 chamber, German cockroaches; conditions: heating fumigant (Preparation example 24, 500 mg) at about 200° C. in 5.8 m^3 chamber
Procedure: On the bottom of a cubic chamber having 1.8 m of side (5.8 m^3), the heating fumigant (ceramic plate) obtained in Preparation example 24 with an electric heater was set in the center. Two plastic cups were put at two corners in the chamber, wherein each cup has ten (5 males and 5 females) adult German cockroaches (Blattella germanica) therein. Two hours after turning on an electric current, the ceramic plate was heated to about 200° C. (200±5° C.) and the active ingredient was vaporized. The heating temperature was estimated by measuring a surface temperature of the ceramic plate with radiation pyrometer (TR-0506C produced by Minolta Company) in advance. Then, the knocked-down cockroaches were counted and the knock-down percentage was calculated. Further, the cockroaches were transferred to a clean plastic cup and given foods and water. The mortality was observed after 7 days.

ants (Formica japonica) = test: Test Example 14: oil-based aerosol spray, ants; conditions: about 450 mg of 1.0% oil-based aerosol sprayed, after 2 days
Procedure: According to Preparation examples 10-14, 1.0% oil-based aerosol of the Pyrone Compound was obtained. In a 200 cc plastic cup having inside wall painted talc for preventing tested ants to escape, about 30 g of soil were set and 10 ants (Formica japonica) were release thereon. The plastic cup was set on the bottom center of a glass cylinder having 20 cm in diameter and 60 cm in height. About 450 mg of the above oil-based aerosol were sprayed to the ants from the upper part of the cylinder. After 10 seconds, the ants were taken out and put into a clean plastic cup having a piece of watermelon peel as food therein. After 2 days, the mortality was observed and the result was 70%.

[7] = system: female adult common mosquitoes (Culex pipiens pallens); test: Test Example 6: mosquito-coil in 0.34 m^3 chamber, knock-down of common mosquitoes; conditions: 1% mosquito-coil (Preparation example 18) burnt in 0.34 m^3 chamber, after 15 minutes
Procedure: On the bottom center of a cubic chamber having 70 cm of side (0.34 m^3), the mosquito-coil obtained in Preparation example 18 was set in a mosquito-coil holder. The mosquito-coil was ignited and the air in the chamber was stirred with a battery-type small electric fun. After that, the mosquito-coil and the electric fun were taken out and twenty female adult common mosquitoes (Culex pipiens pallens) were released into the chamber. After 15 minutes, the knock-down percentage was observed. Reference compound was also tested.

[8] = system: centipede (Scolopendra subspinipes mutilans); test: Test Example 22: oil-based aerosol spray, centipede; conditions: about 1000 mg of 1.0% oil-based aerosol sprayed, after 3 days
Procedure: According to Preparation examples 10-14, 1.0% oil-based aerosol of the Pyrone Compound was obtained. A container (12.5 cm in diameter, 17.5 cm in height, bottom covered 16-mesh iron net and inside wall painted butter for preventing tested pill bugs to escape) having a centipede (Scolopendra subspinipes mutilans) therein was set on the bottom center of a glass cylinder having 20 cm in diameter and 60 cm in height. About 1000 mg of the above oil-based aerosol were sprayed to the centipede from the upper part of the cylinder. After 30 seconds, the centipede was taken out and put into a clean plastic cup and given food and water. It was observed that the centipede was dead after 3 days.

`Cc1cc(O)c(C(=O)CC(C)C)c(=O)o1` [The Pyrone Compound] was tested, and the knock-down percentage [1] was 100%, the “Mortality (%)” value ([2]; dosage 200 mg/m^2, one day) was 98% and the “Mortality (%)” value ([2]; dosage 800 mg/m^2, one day) was 100%. The mortality [3] was at least 90%, the “Hatching ratio (%)” value ([4]; dosage 5 mg/m^2, after 7 days) was 1.7% and the “Hatching ratio (%)” value ([4]; dosage 25 mg/m^2, after 7 days) was 0%. The “Hatching ratio (%)” value ([4]; dosage 125 mg/m^2, after 7 days) was 0%, the ovicidal effect [5] was at least 90% and the “Mortality (%)” value ([6]; after 7 days) was 100%. The “Knock-down percentage (%)” value ([6]; two hours) was 100%, the mortality (ants (Formica japonica)) was 70% and the “Knock-down percentage (%)” value [7] was 98%. For the same compound, the “state of the centipede after spraying” value [8] was “dead”.
